# Results: ChEMBL document CHEMBL5614386, “Design, synthesis, and biological evaluation of novel 1-amido-2-one-4-thio-deoxypyranose as potential antitumor agents for multiple myeloma” (Bioorg Med Chem, 2024)
# Calls of active or inactive are those of the source. The rule behind the calls is not given here.
# Experiments:
# NCI-H929 [1] = assay: Anti-proliferative activity against human NCI-H929 cells assessed as inhibition cell growth at 5 uM incubated for 72 hrs by CCK-8 assay; type: functional, cell-based
# ARP-1 [2] = assay: Anti-proliferative activity against human ARP-1 cells assessed as inhibition cell growth at 5 uM incubated for 72 hrs by CCK-8 assay; type: functional, cell-based
# ARP-1 [3] = assay: Anti-proliferative activity against human ARP-1 cells assessed as inhibition cell growth incubated for 72 hrs by CCK-8 assay; type: functional, cell-based
# NCI-H929 [4] = assay: Anti-proliferative activity against human NCI-H929 cells assessed as inhibition cell growth incubated for 72 hrs by CCK-8 assay; type: functional, cell-based
# [5] = Anti-proliferative activity against human ARP-1cells assessed as cell growth inhibition incubated for 72 hrs by CCK-8 assay; settings: ARP-1, 72 h
# NCI-H929 [6] = assay: Anti-proliferative activity against human NCI-H929 cells assessed as cell growth inhibition incubated for 72 hrs by CCK-8 assay; settings: NCI-H929, 72 h
# [7] = Anti-proliferative activity against human ARP-1 cells assessed as inhibition cell growth at 5 uM incubated for 72 hrs by CCK-8 assay relative to control; type: functional; design: scale not given: the % may be the effect or the level left
# NCI-H929 [8] = assay: Anti-proliferative activity against human NCI-H929 cells assessed as inhibition cell growth at 5 uM incubated for 72 hrs by CCK-8 assay relative to control; type: functional; design: scale not given: the % may be the effect or the level left
# NCI-H929 [9] = assay: Antitumor activity against human NCI-H929 cells xenografted in BALB/C nude mouse model assessed as reduction in tumor growth at 50 mg/kg, sc administrated every other day for 13 days; type: functional, organism-based; settings: time 13.0 day
# [10] = Toxicity in BALB/c mouse xenografted with human NCI-H929 cells assessed as effect on body weight at 50 mg/kg, sc administrated every other day for 13 days; type: organism-based; settings: in vivo, 312 h, time 13 day
SMILES,Activity (NCI-H929 [1]),Activity (ARP-1 [2]),Activity [7] [%],Activity (NCI-H929 [8]) [%],further results
COc1ccccc1SC1CC(=O)[C@H](NC(=O)c2ccccc2)O[C@@H]1COC(C)=O (stereo partly drawn),Active,Active,–,–,–
CC(=O)OC[C@H]1O[C@@H](NC(=O)c2ccccc2)C(=O)CC1SCCCCCCO (stereo partly drawn),Active,Active,–,–,–
Cc1ccc(SC2CC(O)[C@H](NC(=O)c3ccc4c(c3)OCO4)O[C@@H]2CO)cc1 (stereo partly drawn),–,–,–,–,Activity (ARP-1 [3]): Active; Activity (NCI-H929 [4]): Active
COc1ccc(CSC2CC(=O)[C@H](NC(=O)c3ccc4c(c3)OCO4)O[C@@H]2COC(C)=O)cc1 (stereo partly drawn),Active,Active,–,–,–
CC(=O)OC[C@H]1O[C@@H](NC(=O)c2ccc3c(c2)OCO3)C(=O)CC1SCc1ccc(F)cc1 (stereo partly drawn),Active,Active,–,–,–
CC(=O)OC[C@H]1O[C@@H](NC(=O)c2ccc3c(c2)OCO3)C(=O)CC1Sc1ccc(C)cc1 (stereo partly drawn),Active,Active,–,–,IC50 [5]: 1560 nM; IC50 (NCI-H929 [6]): 850 nM
CC(=O)OC[C@H]1O[C@@H](NC(=O)c2ccc3c(c2)OCO3)C(O)CC1Sc1ccc(C)cc1 (stereo partly drawn),–,–,<20,<20,–
COc1ccc(SC2CC(O)[C@H](NC(=O)c3ccc4c(c3)OCO4)O[C@@H]2CO)cc1OC (stereo partly drawn),–,–,–,–,Activity (ARP-1 [3]): Active; Activity (NCI-H929 [4]): Active
COc1ccc(SC2CC(=O)[C@H](NC(=O)c3ccc(OC)cc3)O[C@@H]2COC(C)=O)cc1 (stereo partly drawn),Active,Active,–,–,IC50 [5]: 1410 nM; IC50 (NCI-H929 [6]): 1200 nM
O=C1C2C3C=CC(C4CC34)C2C(=O)N1c1ccc(Cc2ccncc2)cc1 (stereo not drawn),Active,–,–,–,IC50 [5]: 5450 nM; IC50 (NCI-H929 [6]): 6880 nM; Activity (NCI-H929 [9]): Active; Activity [10]: Non-Toxic
COc1ccc(SC2CC(=O)[C@H](NC(=O)c3ccco3)O[C@@H]2COC(C)=O)cc1 (stereo partly drawn),Active,Active,–,–,–
COc1ccccc1SC1CC(=O)[C@H](NC(=O)c2ccc3c(c2)OCO3)O[C@@H]1COC(C)=O (stereo partly drawn),inactive,inactive,–,–,–
CC(=O)OC[C@H]1O[C@@H](NC(=O)c2ccc3c(c2)OCO3)C(=O)CC1SC1CCCC1 (stereo partly drawn),inactive,inactive,–,–,–
CC(=O)OC[C@H]1O[C@@H](NC(=O)c2ccc3c(c2)OCO3)C(=O)CC1SCCc1cnccn1 (stereo partly drawn),Active,Active,–,–,–
CNc1ccc(SC2CC(=O)[C@H](NC(=O)c3ccc4c(c3)OCO4)O[C@@H]2COC(C)=O)cc1 (stereo partly drawn),Active,Active,–,–,–
CC(=O)OC[C@H]1O[C@@H](NC(=O)c2ccccc2)C(=O)CC1SCc1ccco1 (stereo partly drawn),Active,Active,–,–,–
CC(=O)OC[C@H]1O[C@@H](NC(=O)c2ccc3c(c2)OCO3)C(=O)CC1SCc1ccc(C(C)(C)C)cc1 (stereo partly drawn),Active,Active,–,–,–
CC(=O)OC[C@H]1O[C@@H](NC(=O)c2ccccc2)C(=O)CC1SCCc1cnccn1 (stereo partly drawn),Active,Active,–,–,–
CC(=O)OC[C@H]1O[C@@H](NC(=O)c2ccccc2)C(=O)CC1Sc1ccc(Cl)cc1 (stereo partly drawn),Active,Active,–,–,IC50 [5]: 1040 nM; IC50 (NCI-H929 [6]): 2680 nM
CNc1ccc(SC2CC(O)[C@H](NC(=O)c3ccc4c(c3)OCO4)O[C@@H]2COC(C)=O)cc1 (stereo partly drawn),–,–,<20,<20,–
COc1ccc(CSC2CC(=O)[C@H](NC(=O)c3ccccc3)O[C@@H]2COC(C)=O)cc1 (stereo partly drawn),Active,Active,–,–,–
COc1ccc(CSC2CC(O)[C@H](NC(=O)c3ccccc3)O[C@@H]2COC(C)=O)cc1 (stereo partly drawn),–,–,<20,<20,–
CC(=O)OC[C@H]1O[C@@H](NC(=O)c2ccccc2)C(=O)CC1Sc1ccc(F)cc1 (stereo partly drawn),Active,Active,–,–,–
CC(=O)OC[C@H]1O[C@@H](NC(=O)c2ccc3c(c2)OCO3)C(=O)CC1SCCCCCCO (stereo partly drawn),Active,Active,–,–,–
CC(=O)OC[C@H]1O[C@@H](NC(=O)c2ccccc2)C(=O)CC1SCCNC(=O)OC(C)(C)C (stereo partly drawn),Active,Active,–,–,–
COc1ccc(SC2CC(=O)[C@H](NC(=O)c3ccc4c(c3)OCO4)O[C@@H]2COC(C)=O)cc1 (stereo partly drawn),Active,Active,–,–,IC50 [5]: 1380 nM; IC50 (NCI-H929 [6]): 1460 nM
COc1ccc(SC2CC(=O)[C@H](NC(=O)c3ccccc3)O[C@@H]2COC(C)=O)cc1OC (stereo partly drawn),Active,Active,–,–,–

SMILES,Activity (NCI-H929 [1]),Activity (ARP-1 [2]),Activity [7] [%],Activity (NCI-H929 [8]) [%],further results
CC(=O)OC[C@H]1O[C@@H](NC(=O)c2ccccc2)C(=O)CC1Sc1ccc(C)cc1 (stereo partly drawn),Active,Active,–,–,–
COc1ccc(SC2CC(=O)[C@H](NC(=O)c3ccccc3)O[C@@H]2COC(C)=O)cc1 (stereo partly drawn),Active,Active,–,–,–
COc1ccc(C(=O)N[C@@H]2O[C@H](COC(C)=O)C(Sc3ccc(C)cc3)CC2=O)cc1 (stereo partly drawn),Active,Active,–,–,IC50 [5]: 4570 nM; IC50 (NCI-H929 [6]): 1600 nM
CC(=O)OC[C@H]1O[C@@H](NC(=O)c2ccccc2)C(=O)CC1SCc1ccc(Cl)cc1 (stereo partly drawn),Active,Active,–,–,–
CC(=O)OC[C@H]1O[C@@H](NC(=O)c2ccc3c(c2)OCO3)C(=O)CC1SCc1ccc(Cl)cc1 (stereo partly drawn),Active,Active,–,–,–
CC(=O)OC[C@H]1O[C@@H](NC(=O)c2ccccc2)C(O)CC1Sc1ccc(C)cc1 (stereo partly drawn),–,–,<20,<20,–
COc1ccc(SC2CC(O)[C@H](NC(=O)c3ccc4c(c3)OCO4)O[C@@H]2COC(C)=O)cc1 (stereo partly drawn),–,–,<20,<20,–
CC(=O)OC[C@H]1O[C@@H](NC(=O)c2ccccc2)C(=O)CC1SCc1ccc(F)cc1 (stereo partly drawn),Active,Active,–,–,–
CC(=O)OC[C@H]1O[C@@H](NC(=O)c2ccccc2)C(O)CC1SCc1ccc(F)cc1 (stereo partly drawn),–,–,<20,<20,–
CC(=O)OC[C@H]1O[C@@H](NC(=O)c2ccccc2)C(O)CC1Sc1ccc(F)cc1 (stereo partly drawn),–,–,<20,<20,–
CC(=O)OC[C@H]1O[C@@H](NC(=O)c2ccc3c(c2)OCO3)C(=O)CC1SCc1ccco1 (stereo partly drawn),Active,Active,–,–,IC50 [5]: 2710 nM; IC50 (NCI-H929 [6]): 3030 nM
CC(=O)OC[C@H]1O[C@@H](NC(=O)c2ccc3c(c2)OCO3)C(O)CC1SCc1ccc(F)cc1 (stereo partly drawn),–,–,<20,<20,–
CC(=O)OC[C@H]1O[C@@H](NC(=O)c2ccc3c(c2)OCO3)C(=O)CC1Sc1cc(C)cc(C)c1 (stereo partly drawn),Active,Active,–,–,IC50 [5]: 2290 nM; IC50 (NCI-H929 [6]): 1970 nM
CC(=O)OC[C@H]1O[C@@H](NC(=O)c2ccc3c(c2)OCO3)C(O)CC1Sc1cc(C)cc(C)c1 (stereo partly drawn),–,–,<20,<20,–
CC(=O)OC[C@H]1O[C@@H](NC(=O)c2ccccc2)C(O)CC1Sc1ccc(Cl)cc1 (stereo partly drawn),–,–,<20,<20,–
CC(=O)OC[C@H]1O[C@@H](NC(=O)c2ccc3c(c2)OCO3)C(O)CC1SCc1ccco1 (stereo partly drawn),–,–,<20,<20,–
COc1ccc(SC2CC(O)[C@H](NC(=O)c3ccc4c(c3)OCO4)O[C@@H]2COC(C)=O)cc1OC (stereo partly drawn),–,–,<20,<20,–
COC1CC(=O)[C@H](NC(=O)c2ccc3c(c2)OCO3)O[C@@H]1COC(C)=O (stereo partly drawn),inactive,inactive,–,–,–
CC(=O)OC[C@H]1O[C@@H](NC(=O)c2ccccc2)C(=O)CC1Sc1ccc(Br)cc1 (stereo partly drawn),Active,Active,–,–,–
COc1ccc(SC2CC(O)[C@H](NC(=O)c3ccc4c(c3)OCO4)O[C@@H]2CO)cc1 (stereo partly drawn),–,–,–,–,Activity (ARP-1 [3]): Active; Activity (NCI-H929 [4]): Active
COc1ccc(SC2CC(O)[C@H](NC(=O)c3ccc(OC)cc3)O[C@@H]2COC(C)=O)cc1 (stereo partly drawn),–,–,<20,<20,–
CC(=O)OC[C@H]1O[C@@H](NC(=O)c2ccc3c(c2)OCO3)C(=O)CC1SCCNC(=O)OC(C)(C)C (stereo partly drawn),Active,Active,–,–,–
CC(=O)OC[C@H]1O[C@@H](NC(=O)c2ccccc2)C(=O)CC1SCc1ccc(C(C)(C)C)cc1 (stereo partly drawn),Active,Active,–,–,–
CC(=O)OC[C@H]1O[C@@H](NC(=O)c2ccccc2)C(O)CC1Sc1ccc(Br)cc1 (stereo partly drawn),–,–,<20,<20,–
COc1ccc(SC2CC(O)[C@H](NC(=O)c3ccccc3)O[C@@H]2COC(C)=O)cc1 (stereo partly drawn),–,–,<20,<20,–
CC(=O)OC[C@H]1O[C@@H](NC(=O)c2ccc3c(c2)OCO3)C(O)CC1SCc1ccc(Cl)cc1 (stereo partly drawn),–,–,<20,<20,–
